Assays:
[1] = target: thrombin (Homo sapiens, UniProt P00734); assay: Fibrinogen clotting assay (concentration needed to double the clotting time = IC50); assay type: biochemical; conditions: for IC50: IC50 (anti-clotting)
Procedure: The same enzyme kinetic assays were used to determine the inhibitory activities of MH2 and two MH2-derived peptides, MH2-allGS and MH2-GS (Table 4). Clotting assays were carried out to determine the inhibitory activities of the rest of the MH2 peptides by use of the protocols described previously (DiMaio 1990; Taka 2000; Su 2004). The assay employs bovine plasma fibrinogen dissolved at 0.1% in 50 mM Tris-Cl, 100 mM NaCl, 0.1% PEG-8000 at pH 7.6 (i.e. the clotting buffer). In addition to the use of optical densities or ODs (Gill 1989), concentrations of the peptide stock solutions were ranked (and corrected when necessary) by use of quantitative proton NMR spectroscopy (Cavaluzzi 2002). Each assay mixture contained a certain concentration of the peptide, and the reaction was started by the addition of human thrombin to a final concentration of approximately 0.5 nM. Optical absorbance of the assay mixtures was measured at 420 nm using the Spectramax™ plate reader. The onset clotting time was determined as an intersection of the baseline and the tangent line at point of inflection of the clotting curve. The concentration of an MH2 peptide needed to double the clotting time was defined as IC50 (DiMaio 1990) as illustrated in FIG. 4 and summarized in Table 4. The correlation between IC50 values and linker unfolding is similar to that for the BTI series of inhibitors (Table 3). […] (Table 3).

[2] = system: human coagulation proteome; assay: Synthetic coagulation proteome assay (thrombin generation); assay type: biochemical
Procedure: This assay is carried out using an established protocol as described previously (Brummel-Ziedens 2008). Briefly, a pro-cofactor solution containing re-lipidated tissue factor (10 pM; molar ratio PCPS:TF=5000) was incubated with 4 μM PCPS in HBS (20 mM HEPES and 150 mM NaCl at pH 7.4) and 2 mM CaCl2 for 8 min at 37° C. Factor V (40 nM) and Factor VIII (1.4 nM) were then added to the mixture prior to initiation of the reaction to activate the protease zymogens in the blood coagulation cascade. The activation reaction was initiated by addition of the pro-cofactor solution to a zymogen solution containing prothrombin (2.8 μM), Factor VII (20 nM), Factor Vila (0.2 nM), FX (340 nM), Factor IX (180 nM), Factor XI (60 nM), TFPI (5 nM), antithrombin III (6.8 μM) […]
At selected time points after initiation of the reaction, 10 μL aliquots were withdrawn from the reaction mixture and quenched in 20 mM EDTA in HBS (pH 7.4) containing 0.2 mM Spectrozyme™ TH and assayed immediately for the proteolytic activity of thrombin. The hydrolysis of Spectrozyme™ TH was monitored by the change in absorbance at 405 nm using a SpectraMax™ plate reader (Molecular Devices Corp., Menlo Park, Calif., USA). Concentration of thrombin generated by the reaction was calculated from a standard curve prepared by serial dilutions of known concentrations of α-thrombin using the fibrinogen clotting assay (DiMaio 1990). Fibrinogen solution was freshly prepared by dissolving about 0.5% (w/v) fibrinogen in 50 mM Tris-HCl, 100 mM NaCl, 0.1% PEG-8000, pH 7.6 and filtering the resulting solution through a hydrophilic membrane of 0.45 μm polyvinylidene fluoride (PVDF) with low protein binding. The concentration of fibrinogen after filtration was determined by using the extinction coefficient of 15.0 for 1% fibrinogen at 280 nm. […] Thrombin-induced clotting of fibrinogen was followed at 25° C. by measuring the optical absorbance at 420 nm. The clotting time was obtained from extrapolation of the slope at the point of inflection to the zero absorbance baseline. […]

[3] = system: FeCl3-induced arterial thrombosis (carotid artery); assay: FeCl3-induced arterial model of thrombosis in rats (time to occlusion); assay type: in vivo; conditions: rat, single bolus 0.2 mg/kg plus maintenance infusion 0.00433 mg/kg/min
Procedure: Male Sprague-Dawley rats (250-310 g; Charles River Laboratories, St-Constant, QC, Canada) were acclimated for at least 3 days prior to the start of the study. Animals were housed in microisolator cages and were kept on a 12-hr light/dark cycle with constant temperature and humidity. Food and water were provided ad libitum. Various anti-thrombotic agents and peptides of this invention were dissolved in saline (0.9% sodium chloride) prior to use.
The FeCl3-induced arterial model of thrombosis in rats was also generated as described by Wang and Xu (Wang 2005) with some modifications (Couture 2011). Briefly, rats were anesthetized with a 2.5% isoflurane/oxygen mixture and placed on a heat source (35-37° C.). An incision was made over the right carotid artery, and a segment of the artery was exposed via blunt dissection. A Doppler flow probe (Model MA1PRB, Transonic System Inc., Ithaca, N.Y., USA) connected to a perivascular flow module (TS420, Transonic System Inc., Ithaca, N.Y., USA) was then attached to the carotid artery to monitor blood flow. Data were collected and analyzed using the MP100 Biopac™ Systems (Biopac Systems, Santa Barbara, Calif., USA), and the AcgKnowledge™ software (Biopac Systems, Santa Barbara, Calif., USA), respectively. Baseline blood flow was recorded for a minimum of 15 minutes until readings stabilized. Aquasonic 100 gel (Parker Laboratories, Inc., Fairfield, N.J., USA) was added to help conductivity and any fluid accumulating at the site of surgery was removed during data sampling without touching the probe. […] One minute after drug administration, a piece of filter paper (Gel Blot Paper, GB003, Whatman, Piscataway, N.J., USA; 7 mm diameter) saturated with 20% FeCl3 (EMD Chemicals Inc., Gibbstown, N.J., USA) was placed on the exposed surface of the carotid artery and incubated for 3.5 minutes. During the application of FeCl3, the neck region was covered with aluminum foil. At the end of the incubation period, the filter paper was removed and the exposed carotid was covered with a saline-soaked gauze. Time to occlusion was defined as the time from the application of FeCl3 until blood flow decreased to zero. […] Preparing and processing each animal took approximately 1 hr and 7 animals were treated each day. Control animals were always included when the other treatments were being administered. For this reason, the number of animals in the control group is higher than that of the treated-groups.
Statistical analysis was conducted using GraphPad™ Prism (GraphPad Software Inc., San Diego Calif., USA). Data were analyzed using one-way ANOVA with post-hoc Bonferroni correction for multiple comparisons. The relationship between thrombus weight and thrombus volume was determined by linear regression. […]

**Q.** Which results are given for `CC[C@H](C)[C@H](N)C(=O)N[C@@H](CCCNC(=N)N)C(=O)N[C@@H](Cc1ccccc1)C(=O)N[C@H](C(=O)N[C@@H](CC(=O)O)C(=O)NCC(=O)N[C@@H](CCC(=O)O)C(=O)N[C@@H](Cc1c[nH]c2ccccc12)C(=O)N[C@H](C(=O)N[C@@H](Cc1c[nH]c2ccccc12)C(=O)N[C@@H](CC(=O)O)C(=O)N[C@@H](CC(=O)O)C(=O)N[C@@H](C)C(=O)N[C@H](C(=O)N[C@@H](CCCCN)C(=O)N[C@H](C(=O)N[C@@H](Cc1c[nH]c2ccccc12)C(=O)N[C@H](C(=O)N[C@@H](Cc1c[nH]c2ccccc12)C(=O)N[C@H](C(=O)N[C@@H](CCC(=O)O)C(=O)NCC(=O)N[C@@H](CC(=O)O)C(=O)N[C@@H](Cc1ccccc1)C(=O)N[C@@H](CCC(=O)O)C(=O)N[C@@H](CCC(=O)O)C(=O)N[C@H](C(=O)N1CCC[C@H]1C(=O)N[C@@H](CCC(=O)O)C(=O)N[C@@H](CCC(=O)O)C(=O)N[C@@H](Cc1ccc(O)cc1)C(=O)N[C@@H](CC(C)C)C(=O)N[C@@H](CCC(N)=O)C(=O)O)[C@@H](C)CC)[C@@H](C)O)[C@@H](C)O)[C@@H](C)O)[C@@H](C)O)[C@@H](C)O)[C@@H](C)O` [MH2-wZIP4]?
**A.** Ki [1]: ~150 nM; IC50 ([1]; T = 25° C.): ~250 nM; IC50 ([1]; T = 37° C.): 154 nM; delay of thrombin burst / onset of thrombin generation ([2]; 37° C.): very little delay in the onset of thrombin generation; delay of onset of thrombin generation with increase of bulk temperature ([2]; 42° C. versus 37° C.): delaying effect is increased somewhat; anti-thrombotic efficacy in arterial model [3]: increases the efficacy

— patent publication US10155802B2, “Locally-active anticoagulants and anti-inflammatory agents” (priority 2011, dated 2018)
